In brackets after ≈: the same amount, converted by molar mass. Read-outs that look alike come from different tables or passages of the source. Square brackets hold non-standard residues; d marks the D form. Ends that are not written are not given here. Peptide text beside a SMILES is read from it.
Columns and labels:
[1] = system: Candida albicans (SC5314, ATCC 24433, ATCC 90028); assay type: cell-based; details: for MIC: SC5314
Experimental: Minimum inhibitory concentration assay. Minimum inhibitory concentrations (MIC) for the β-peptides were determined using the broth microdilution assay described by the Committee for Clinical and Laboratory Standards (formerly known as the National Committee for Clinical Laboratory Standards) (National Committee for Clinical Laboratory Standards Reference method for broth dilution antifungal susceptibility testing of yeasts: approved standard—second edition; NCCLS document M27-A2; NCCLS: Wayne, Pa., 2002). Three strains of Candida albicans were used: SC5314, ATCC 24433, and ATCC 90028. Cells were grown for 24 hours on Sabouraud dextrose agar at 30° C. After 24 hours of growth, the cells were suspended in 0.145 M saline, and the concentration was adjusted to between 1×10^6 cells/mL and 5×10^6 cells/mL in saline. The working suspension was obtained by diluting the suspension 1:1000 in RPMI 1640 (with L-glutamine and without sodium bicarbonate, Invitrogen) buffered with 0.145 mol/L 3-(N-morpholino) propanesulfonic acid (MOPS).
Twofold serial dilutions of stock solutions of α- or β-peptides or amphotericin B (Calbiochem, solubilized in dimethyl sulfoxide) were made in RPMI 1640, and 100 μL aliquots were put into 96-well plates (Falcon). An equal volume of the cell suspension was added to the wells for a total volume of 200 μL. Growth controls and sterility controls were included.
Plates were incubated at 35° C. for 48 h and then visually inspected for fungal growth. […] Experiments were performed in duplicate and repeated on at least two different days.

[2] = system: human red blood cells (hRBC); assay: Hemolysis assay; assay type: cell-based
Experimental: Hemolysis assay. The hemolysis assay was performed using human red blood cells (hRBC) as described previously (Raguse, et al. J. Am. Chem. Soc. 2002, 124, 12774-12785; Porter, et al. J. Am. Chem. Soc. 2005, 127, 11516-11529). The hRBC were washed three times in TRIS-buffered saline (TBS; 10 mM TRIS, 150 mM NaCl, pH 7.2) and then diluted to a concentration of 1% (v/v) in TBS. The hRBC suspension (80 μL) was added to twofold dilutions of peptides in TBS (20 μL) in a 96-well plate (Falcon). Wells containing hRBC treated with 20 μL TBS provided a negative control, and wells with high concentrations of the peptide melittin (Sigma) served as a positive control. After incubating at 37° C. for 1 h, plates were centrifuged, and 50 μL of the supernatant was diluted with 50 μL of water in a fresh 96-well plate. The absorbance of the diluted supernatant was measured at 405 nm, and the percent hemolysis for each well was calculated from
[formula] where A405^peptide is the absorbance for the supernatant of hRBC treated with peptide, A405^buffer is the absorbance for the supernatant of hRBC in TBS, and A405^completlysis is the average absorbance for the supernatant of cells treated with melittin at concentrations of 50-400 μg/mL. Experiments were performed in duplicate on at least two different days. Biofilm Antifungal Susceptibility Testing

[3] = average over three C. albicans strains, pH 7, physiological ionic strength, Table 1 prints no unit
[4] = pH 7, physiological ionic strength

| Average MIC ([1]; SC5314, pH 7) | Compound | % Hemolysis at MIC [2] | antifungal activity in the planktonic NCCLS assay (in words) [1, 4] | further results |
| --- | --- | --- | --- | --- |
| – | CC(C)C[C@@H](CC(=O)N[C@H]1CCCC[C@@H]1C(=O)N[C@@H](CCCCN)CC(N)=O)NC(=O)C[C@H](CCCCN)NC(=O)[C@H]1CCCC[C@@H]1NC(=O)C[C@H](CC(C)C)NC(=O)C[C@H](CCCCN)NC(=O)[C@H]1CCCC[C@@H]1NC(=O)C[C@H](CC(C)C)NC(=O)C[C@@H](N)Cc1ccc(O)cc1 [β^3Tyr-(β^3Leu-ACHC-β^3Lys)3] | – | – | MIC [1]: 16 µg/mL (≈ 11.6 µM) |
| – | NCCCC[C@H](CC(N)=O)NC(=O)C[C@@H](Cc1ccccc1)NC(=O)[C@@H]1CCCC[C@H]1NC(=O)C[C@@H](CCCCN)NC(=O)C[C@@H](Cc1ccccc1)NC(=O)[C@@H]1CCCC[C@H]1NC(=O)C[C@@H](CCCCN)NC(=O)C[C@@H](Cc1ccccc1)NC(=O)[C@@H]1CCCC[C@H]1NC(=O)C[C@H](N)Cc1ccc(O)cc1 [(R)β^3Tyr-[(R,R)ACHC—(R)β^3Phe-(R)β^3Lys]3] | – | – | MIC [1]: 8 µg/mL (≈ 5.41 µM) |
| 8 µg/mL | NCCCC[C@@H](CC(N)=O)NC(=O)C[C@H](Cc1ccccc1)NC(=O)[C@H]1CCCC[C@@H]1NC(=O)C[C@H](CCCCN)NC(=O)C[C@H](Cc1ccccc1)NC(=O)[C@H]1CCCC[C@@H]1NC(=O)C[C@H](CCCCN)NC(=O)C[C@H](Cc1ccccc1)NC(=O)[C@H]1CCCC[C@@H]1NC(=O)C[C@@H](N)Cc1ccc(O)cc1 [β-peptide 3, β^3Tyr-(ACHC-β^3Phe-β^3Lys)3] | 80% | – | – |
| – | C9-β^3Tyr-(ACHC-ACHC-β^3Lys)3 | – | – | Average MIC [1, 3]: 16 µg/mL |
| >128 µg/mL | CC[C@H](C)[C@H](NC(=O)CN)C(=O)NCC(=O)N[C@@H](CCCCN)C(=O)N[C@@H](Cc1ccccc1)C(=O)N[C@@H](CC(C)C)C(=O)N[C@@H](Cc1c[nH]cn1)C(=O)N[C@@H](C)C(=O)N[C@@H](C)C(=O)N[C@@H](CCCCN)C(=O)N[C@@H](CCCCN)C(=O)N[C@@H](Cc1ccccc1)C(=O)N[C@@H](C)C(=O)N[C@@H](CCCCN)C(=O)N[C@@H](C)C(=O)N[C@@H](Cc1ccccc1)C(=O)N[C@H](C(=O)N[C@@H](C)C(=O)N[C@@H](CCC(=O)O)C(=O)N[C@H](C(=O)N[C@@H](CCSC)C(=O)N[C@@H](CC(N)=O)C(=O)N[C@@H](CO)C(N)=O)[C@@H](C)CC)C(C)C [L-Magainin 2 derivative, reference compound] (H-GIGKFLHAAKKFAKAFVAEIMNS-NH2; N-terminus assumed) | 48% | neither cecropin B nor a magainin derivative displays any activity | – |
| >128 µg/mL | CC[C@@H](C)[C@@H](NC(=O)CN)C(=O)NCC(=O)N[C@H](CCCCN)C(=O)N[C@H](Cc1ccccc1)C(=O)N[C@H](CC(C)C)C(=O)N[C@H](Cc1c[nH]cn1)C(=O)N[C@H](C)C(=O)N[C@H](C)C(=O)N[C@H](CCCCN)C(=O)N[C@H](CCCCN)C(=O)N[C@H](Cc1ccccc1)C(=O)N[C@H](C)C(=O)N[C@H](CCCCN)C(=O)N[C@H](C)C(=O)N[C@H](Cc1ccccc1)C(=O)N[C@@H](C(=O)N[C@H](C)C(=O)N[C@H](CCC(=O)O)C(=O)N[C@@H](C(=O)N[C@H](CCSC)C(=O)N[C@H](CC(N)=O)C(=O)N[C@H](CO)C(N)=O)[C@H](C)CC)C(C)C [D-Magainin 2 derivative, reference compound] (H-G[dI]G[dK][dF][dL][dH][dA][dA][dK][dK][dF][dA][dK][dA][dF][dV][dA][dE][dI][dM][dN][dS]-NH2; N-terminus assumed) | 48% | inactive | – |
| 21 µg/mL | NCCCC[C@@H](CC(N)=O)NC(=O)[C@H]1CCCC[C@@H]1NC(=O)[C@H]1CCCC[C@@H]1NC(=O)C[C@H](CCCCN)NC(=O)[C@H]1CCCC[C@@H]1NC(=O)[C@H]1CCCC[C@@H]1NC(=O)C[C@H](CCCCN)NC(=O)[C@H]1CCCC[C@@H]1NC(=O)[C@H]1CCCC[C@@H]1NC(=O)C[C@@H](N)Cc1ccc(O)cc1 [β-peptide 5, β^3Tyr-(ACHC-ACHC-β^3Lys)3] | 7% | – | MIC [1]: 16 µg/mL (≈ 11.7 µM) |
| – | CC(C)[C@@H](CC(=O)N[C@H]1CCCC[C@@H]1C(=O)N[C@@H](CCCCN)CC(=O)N[C@H](CC(=O)N[C@H]1CCCC[C@@H]1C(=O)N[C@H]1CCCC[C@@H]1C(=O)N[C@@H](CCCCN)CC(N)=O)C(C)C)NC(=O)C[C@@H](NC(=O)C[C@@H](N)CCCCN)C(C)C [β-peptide 7, β^3Lys-β^3Val-β^3Val-ACHC-β^3Lys-β^3Val-ACHC-ACHC-β^3Lys] | – | lack of antifungal activity | – |
| – | CC(C)[C@@H](CC(=O)N[C@@H](CCCCN)CC(N)=O)NC(=O)[C@H]1CCCC[C@@H]1NC(=O)C[C@H](CCCCN)NC(=O)C[C@@H](NC(=O)[C@H]1CCCC[C@@H]1NC(=O)C[C@H](CCCCN)NC(=O)C[C@@H](NC(=O)[C@H]1CCCC[C@@H]1N)C(C)C)C(C)C [β-peptide 6, (ACHC-β^3Val-β^3Lys)3] | – | – | % Hemolysis at MIC ([2]; human red blood cells, at the average MIC): 5%; Average MIC [1, 3]: 17 µg/mL; antifungal activity in the planktonic NCCLS assay (in words) ([1]; pH 7, physiological ionic strength, listed as 6): average MIC is indistinguishable relative to β^3Tyr-containing variant (1); antifungal activity in the planktonic NCCLS assay (in words) ([1]; pH 7, physiological ionic strength, listed as (ACHC-β^3Val-β^3Lys)3): showed activity in the planktonic assay |
| – | β^3Tyr-(ACHC-β^3Val-β^3Arg)3 | – | showed activity in the planktonic assay | – |
| 11 µg/mL | CC(C)C[C@@H](CC(=O)N[C@@H](CCCCN)CC(=O)N[C@H]1CCCC[C@@H]1C(=O)N[C@H](CC(=O)N[C@@H](CCCCN)CC(=O)N[C@H]1CCCC[C@@H]1C(=O)N[C@H](CC(=O)N[C@@H](CCCCN)CC(N)=O)CC(C)C)CC(C)C)NC(=O)[C@H]1CCCC[C@@H]1NC(=O)C[C@@H](N)Cc1ccc(O)cc1 [β-peptide 2, β^3Tyr-(ACHC-β^3Leu-β^3Lys)3] | 73% | – | – |
| 69 µg/mL | CC(C)[C@@H](CC(=O)N[C@@H](CCCCN)CC(=O)N[C@H](CC(=O)N[C@H](CC(=O)N[C@@H](CCCCN)CC(=O)N[C@H](CC(=O)N[C@H](CC(=O)N[C@@H](CCCCN)CC(N)=O)C(C)C)C(C)C)C(C)C)C(C)C)NC(=O)C[C@@H](NC(=O)C[C@@H](N)Cc1ccc(O)cc1)C(C)C [β-peptide 4, β^3Tyr-(β^3Val-β^3Val-β^3Lys)3] | 9% | – | antifungal activity in the planktonic NCCLS assay (in words) ([1]; pH 7, physiological ionic strength, listed as 4): substantially weaker antifungal activity; antifungal activity in the planktonic NCCLS assay (in words) ([1]; pH 7, physiological ionic strength, listed as β^3Tyr-(β^3Val-β^3Val-β^3Lys)3): showed activity in the planktonic assay |
| – | cecropin B (KWKVFKKIEKMGRNIRNGIVKAGPAIAVLGEAKAL; ends and bridges not checked; UniProt P01508 27-61, looked up) [amphiphilic host-defense α-peptide, reference compound] | – | neither cecropin B nor a magainin derivative displays any activity | – |

— patent US9168329B2, “Beta-peptides with antifungal activity” (Wisconsin Alumni Research Foundation, priority 2006, dated 2015)
